Key:
[1] = MTS cytotoxicity assay in U87 MG cells; format: cell-based; details: human, U87 MG cells (human brain)
Description: An MTS assay was performed to determine the cytotoxicity concentration 50% (CC50) of cladoniamide A (CA) in human A549 cells, a cell line from human lung carcinoma. Various concentrations of CA were added to cultured A549 cells and incubated (37° C., 5% CO2) for 48 h. Cell viability was then measured by an MTS assay kit (CellTiter 96™ Aqueous One Solution cell proliferation assay, Promega) according to the manufacturer's instructions. Curve fitting was performed in Igor Pro (WaveMetrics) using a hyperbolic fit algorithm (FIG. 1). The CC50 of CA in A549 cells was determined to be 54±5 μM. An MTS assay was also performed to determine the CC50 of CA in human U87 MG cells, a cell line from human brain. Various concentrations of CA were added to cultured U87 MG cells and incubated (37° C., 5% CO2) for 48 h. Cell viability was then measured by an MTS assay kit (CellTiter 96 Aqueous One Solution cell proliferation assay, Promega) according to the manufacturer's instructions. Curve fitting was performed in Igor Pro (WaveMetrics) using a hyperbolic fit algorithm (FIG. 2).

ZIKV replicon = ZIKV replicon luminescence assay in Huh-7.5 replicon-containing cells; format: cell-based, Zika virus; details: Huh-7.5 ZIKV replicon cells, 48 h
Description: Error bars represent SD among 3 biological replicates.
Cultured Huh-7.5.1 cells and Huh-7.5 ZIKV replicon-containing cells (Xie 2016) were treated with various concentrations of CA or putative ZIKV replication inhibitor NITD-008 (Deng 2016) for 48 h. Cells were then washed with PBS and ViviRen™ Live Cell Substrate (Promega) was added to a final concentration of 30 μM. Following incubation for 2 min at room temperature, luminescence was measured. Curve fitting was performed in Igor Pro (WaveMetrics) using a sigmoidal fit algorithm (FIG. 5).

ZIKV [2] = assay: Time-of-addition study of ZIKV infection in A549 cells (plaque assay); format: cell-based, Zika virus; details: 250 nM CA; full lifecycle, pre-replication, post-replication; A549, MOI 1.0
Description: Error bars represent SEM among 3 biological replicates. Significance was calculated by a 2-tailed unpaired Student's t-test. *, p<0.05.
Cultured A549 cells were inoculated with ZIKV for 1 h at MOI 1.0, and maintained for 2 d under different experimental conditions. For “Full lifecycle” 250 nM CA was added following the inoculation and maintained in the medium for 2 d; for “Pre-replication” 250 nM CA was added following the inoculation and maintained in the medium for 6 h, after which the cells were washed with PBS and the medium was changed; and for “Post-replication” 250 nM CA was added to the culture medium 12 hours post infection (hpi) and maintained until 24 hpi, after which the cells were washed with PBS and the medium was changed.

ZIKV [3] = assay: ZIKV viral dsRNA imaging (Cellomics ArrayScan VTI) in A549 cells; format: cell-based, Zika virus; details: 15 μM, 1 h pre-treatment, MOI 1, 48 h
DENV-2 = DENV-2 intracellular dsRNA (Cellomics) in A549 cells; format: cell-based, dengue virus
Description: Error bars represent SD among 3 biological replicates. Cultured A549 cells were treated with the indicated concentrations of CA (1=Mock, 2=0 M, 3=1 μM, 4=5 M, 5=10 M, 6=20 µM) or PF-429242 (7=15 M) for 1 h before being washed with PBS and infected with DENV-2, DENV-3, or DENV-4 at MOI 1.0 for 48 h. Cells were labeled for viral dsRNA with […] then imaged and quantified using the Cellomics ArrayScan™ VTI High Content Screening system.
Viruses. ZIKV: ZIKV strain PRVABC59 (Puerto Rico/2015) (ATCC #VR-1843) was used in these studies, specifically three separate stocks generated in Vero E6 cells with titres of 1.35×10^8 pfu/mL, 1.0×10^7 pfu/mL, and 2.9×10^6 pfu/mL respectively. DENV strains: DENV-2 strain NGC, DENV-3 strain H-87, and DENV-4 strain H-241 were kindly provided by National Microbiology Laboratory, Winnipeg, MB, Canada.
A549 cells were seeded onto Corning tissue culture treated 96 well plates and incubated at 37 degrees Celsius and 5% CO2 for 24 h. CA was diluted in MEM complete media to concentrations of 1 μM, 5 μM, 10 μM, 20 μM, including a 0 μM condition. Diluted CA was added to each well and cells were incubated at 37 degrees Celsius and 5% CO2 for 1 h. After 1 h, cells were washed once with PBS to remove CA and were then infected with DENV-2, -3 or -4 at an MOI of 1. […] Labeled 96 well plates were imaged and quantified using the Cellomics ArrayScan VTI. […]

DENV-2, DENV-3, DENV-4 = assay: DENV-2, -3, -4 dsRNA imaging in Huh7.5.1 and U87 cells; format: cell-based, dengue virus; details: Huh 7.5.1 cells and U87 cells, FIG. 9
Description: Cultured Huh7.5.1 cells (left plots) or U87 cells (right plots) were treated with the indicated concentrations of CA (1=Mock, 2=0 M, 3=1 M, 4=5 M, 5=10 M, 6=20 µM) or PF-429242 (7=15 M) for 1 h before being washed with PBS and infected with DENV-2, DENV-3, or DENV-4 at MOI 1.0 for 48 h. Cells were labeled for viral dsRNA with […] then imaged and quantified using the Cellomics ArrayScan™ VTI.

[4] = system: human coronavirus 229E (HCoV-229E); assay: HCoV-229E intracellular viral dsRNA assay in Huh-7 cells; format: cell-based; details: Huh-7, 48 h
Description: An IF-based assay was used to monitor viral dsRNA in infected cells.
CA pre-treatment: Cladoniamide A was added to non-infected Huh-7 cells (3 h). Cells were washed with PBS and inoculated with human coronavirus 229E (HCoV-229E) for 3 hours, then HCoV-229E was removed and the cells were washed with PBS once more. 48 hours post-infection, the cells were fixed and the intra-cellular viral dsRNA was quantified (HCS CX5 system). CA added post-infection: Huh-7 cells were inoculated with HCoV-229E for 3 hours. Then HCoV-229E was removed and cells were washed with PBS. Cladoniamide A was added to these infected cells. 48 hours post-infection, the cells were fixed and the intra-cellular viral dsRNA was quantified (HCS CX5 system).

SMILES: COc1c2n(c3ccccc13)[C@]1(O)C(=O)N(C)C(=O)[C@]1(O)c1c-2[nH]c2ccc(Cl)cc12 [CA, (11S,15R)-7-chloro-11,15-dihydroxy-23-methoxy-13-methyl-3,13,16-triazahexacyclo[14.7.0.0^2,10.0^4,9.0^11,15.0^17,22]tricosa-1(23),2(10),4(9),5,7,17,19,21-octaene-12,14-dione]
- CC50 at 48 h [1]: 42 ± 12 µM
- ZIKV replication inhibition (ZIKV replicon): not a ZIKV replication inhibitor
- step of ZIKV infection inhibited (ZIKV [2]): dual inhibitor of ZIKV infection targeting the entry and maturation steps
- activity against ZIKV (viral dsRNA) (ZIKV [3]): good activity
- activity against Dengue virus 2 in vitro (DENV-2; 1-20 μM, FIG. 8 upper plots): good activity
- IC50 (DENV-2; Dengue virus, DENV2, DENV-2, intracellular dsRNA (Cellomics)): 2.3 µM
- activity against Dengue virus 2, 3 and 4 (DENV-2, DENV-3, DENV-4): broad-spectrum anti-flaviviral activity
- EC50 [4]: 0.015 µM

Source: patent US12643899B2, “Antiviral agents, uses thereof and methods for their preparation” (The University of British Columbia, priority 2020, dated 2026)
